The record followed here is patent publication US9936701B2, “Herbicidal compounds” (Syngenta Participations AG, priority 2013, dated 2018).

Test [1] concerns a variety of test species. Briefly: Pre-emergence herbicidal activity (glasshouse, sprayed one day after sowing, evaluated after 13 days). In kind it is in vivo. Also noted: key: 5=total damage to plant; 0=no damage to plant. As to conditions: application pre-emergence, rate 1000 g/Ha, scale 0-5. The method, then:
Seeds of a variety of test species were sown in standard soil in pots. After cultivation for one day (pre-emergence) under controlled conditions in a glasshouse (at 24/16° C., day/night; 14 hours light; 65% humidity), the plants were sprayed with an aqueous spray solution derived from the formulation of the technical active ingredient in acetone/water (50:50) solution containing 0.5% Tween 20 (polyoxyethelyene sorbitan monolaurate, CAS RN 9005-64-5). The test plants were then grown in a glasshouse under controlled conditions (at 24/16° C., day/night; 14 hours light; 65% humidity) and watered twice daily. After 13 days, the test was evaluated (5=total damage to plant; 0=no damage to plant).

Test [2] relates to a variety of test species. In words: Post-emergence herbicidal activity (glasshouse, sprayed after 8 days cultivation, evaluated after 13 days). In kind it is in vivo. On the set-up: key: 5=total damage to plant; 0=no damage to plant. To be noted: rate 1000 g/Ha, scale 0-5. The method, then:
Seeds of a variety of test species were sown in standard soil in pots. After 8 days cultivation (post-emergence) under controlled conditions in a glasshouse (at 24/16° C., day/night; 14 hours light; 65% humidity), the plants were sprayed with an aqueous spray solution derived from the formulation of the technical active ingredient in acetone/water (50:50) solution containing 0.5% Tween 20 (polyoxyethelyene sorbitan monolaurate, CAS RN 9005-64-5). The test plants were then grown in a glasshouse under controlled conditions (at 24/16° C., day/night; 14 hours light; 65% humidity) and watered twice daily. After 13 days, the test was evaluated (5=total damage to plant; 0=no damage to plant).

With `CC(=O)OC1C(C)=C(Cl)C(=O)N1c1cc(C(C)(C)C)on1` (stereo not drawn) [A75], in test [1], the “Pre-emergence herbicidal damage score, ABUTH” value came to 5; the “Pre-emergence herbicidal damage score, ALOMY” value is on record as 4; the “Pre-emergence herbicidal damage score, AMARE” value was 5; the “Pre-emergence herbicidal damage score, ECHCG” value was found to be 4. Moreover, in test [1], the “Pre-emergence herbicidal damage score, SETFA” value is given as 4 and the “Pre-emergence herbicidal damage score, ZEAMX” value was 3. Also, in test [2], the “ABUTH (Abutilon theophrasti) damage score, application post-emergence” value (from here on “ABUTH … application post-emergence”) stood at 5; the “ALOMY (Alopecurus myosuroides) damage score, application post-emergence” value (“ALOMY … application post-emergence” for short) amounted to 5; the “AMARE (Amaranthus retroflexus) damage score, application post-emergence” value (“AMARE … application post-emergence” for short) turned out to be 5; the “ECHCG (Echinochloa crus-galli) damage score, application post-emergence” value (shortened to “ECHCG … application post-emergence”) was determined as 5. Also, in test [2], the “SETFA (Setaria faberi) damage score, application post-emergence” value (“SETFA (Setaria faberi) damage score” below) turned out to be 5 and the “ZEAMX (Zea mays) damage score, application post-emergence” value (from here on “ZEAMX (Zea mays) damage score”) amounted to 5.
`CC1=C(Br)C(=O)N(c2cc(C)on2)C1O` (stereo not drawn) [A3]: in test [1], the “Pre-emergence herbicidal damage score, ABUTH” value was 5; the “Pre-emergence herbicidal damage score, ALOMY” value was 3; the “Pre-emergence herbicidal damage score, AMARE” value was found to be 5; the “Pre-emergence herbicidal damage score, ECHCG” value was 3. Also, in test [1], the “Pre-emergence herbicidal damage score, SETFA” value was 5 and the “Pre-emergence herbicidal damage score, ZEAMX” value stood at 2. Moreover, in test [2], the “ABUTH … application post-emergence” value came to 5; the “ALOMY … application post-emergence” value was 4; the “AMARE … application post-emergence” value is 5; the “ECHCG … application post-emergence” value is 5. In test [2], the “SETFA (Setaria faberi) damage score” value is reported as 5 and the “ZEAMX (Zea mays) damage score” value is given as 3.
With `CCC1=C(Cl)C(=O)N(c2cc(C(C)(C)C)on2)C1O` (stereo not drawn) [A16], in test [1], the “Pre-emergence herbicidal damage score, ABUTH” value is listed as 5; the “Pre-emergence herbicidal damage score, ALOMY” value was 4; the “Pre-emergence herbicidal damage score, AMARE” value is given as 5; the “Pre-emergence herbicidal damage score, ECHCG” value is given as 5. Further, in test [1], the “Pre-emergence herbicidal damage score, SETFA” value is listed as 5 and the “Pre-emergence herbicidal damage score, ZEAMX” value is reported as 3. Besides, in test [2], the “ABUTH … application post-emergence” value worked out at 5; the “ALOMY … application post-emergence” value turned out to be 5; the “AMARE … application post-emergence” value is reported as 5; the “ECHCG … application post-emergence” value came out at 5. Further, in test [2], the “SETFA (Setaria faberi) damage score” value is 5 and the “ZEAMX (Zea mays) damage score” value is 5.
With `COC1=C(Cl)C(=O)N(c2cc(C(C)(C)C)on2)C1O` (stereo not drawn) [B1], in test [1], the “Pre-emergence herbicidal damage score, ABUTH” value worked out at 5; the “Pre-emergence herbicidal damage score, ALOMY” value was found to be 4; the “Pre-emergence herbicidal damage score, AMARE” value was 5; the “Pre-emergence herbicidal damage score, ECHCG” value is recorded as 5. In test [1], the “Pre-emergence herbicidal damage score, SETFA” value is given as 3 and the “Pre-emergence herbicidal damage score, ZEAMX” value came to 4. Further, in test [2], the “ABUTH … application post-emergence” value is reported as 5; the “ALOMY … application post-emergence” value is 5; the “AMARE … application post-emergence” value is recorded as 5; the “ECHCG … application post-emergence” value is reported as 5. In addition, in test [2], the “SETFA (Setaria faberi) damage score” value is reported as 5 and the “ZEAMX (Zea mays) damage score” value was found to be 5.
For the molecule `CC1=C(Cl)C(=O)N(c2noc(C(C)(C)C)c2C#N)C1` [A102], in test [1], the “Pre-emergence herbicidal damage score, ABUTH” value is on record as 5; the “Pre-emergence herbicidal damage score, ALOMY” value amounted to 4; the “Pre-emergence herbicidal damage score, AMARE” value was determined as 5; the “Pre-emergence herbicidal damage score, ECHCG” value was determined as 4. Besides, in test [1], the “Pre-emergence herbicidal damage score, SETFA” value amounted to 5 and the “Pre-emergence herbicidal damage score, ZEAMX” value was 3. In test [2], the “ABUTH … application post-emergence” value came out at 5; the “ALOMY … application post-emergence” value is recorded as 5; the “AMARE … application post-emergence” value is given as 5; the “ECHCG … application post-emergence” value was found to be 5. Further, in test [2], the “SETFA (Setaria faberi) damage score” value came to 5 and the “ZEAMX (Zea mays) damage score” value came to 4.
In the case of `COC1=C(C)C(=O)N(c2cc(C)on2)C1O` (stereo not drawn) [G2], in test [1], the “Pre-emergence herbicidal damage score, ABUTH” value is recorded as 5; the “Pre-emergence herbicidal damage score, ALOMY” value is on record as 1; the “Pre-emergence herbicidal damage score, AMARE” value is given as 5; the “Pre-emergence herbicidal damage score, ECHCG” value stood at 3. Further, in test [1], the “Pre-emergence herbicidal damage score, SETFA” value stood at 3 and the “Pre-emergence herbicidal damage score, ZEAMX” value is reported as 1. For the same molecule, in test [2], the “ABUTH … application post-emergence” value amounted to 3; the “ALOMY … application post-emergence” value stood at 2; the “AMARE … application post-emergence” value came out at 5; the “ECHCG … application post-emergence” value was 2. Besides, in test [2], the “SETFA (Setaria faberi) damage score” value worked out at 1 and the “ZEAMX (Zea mays) damage score” value came out at 1.
`COC1=C(OC)C(O)N(c2cc(C(C)(C)C)on2)C1=O` (stereo not drawn) [F1]: in test [1], the “Pre-emergence herbicidal damage score, ABUTH” value is on record as 5; the “Pre-emergence herbicidal damage score, ALOMY” value is on record as 3; the “Pre-emergence herbicidal damage score, AMARE” value is reported as 5; the “Pre-emergence herbicidal damage score, ECHCG” value is given as 4. In test [1], the “Pre-emergence herbicidal damage score, SETFA” value worked out at 4 and the “Pre-emergence herbicidal damage score, ZEAMX” value is on record as 2. In test [2], the “ABUTH … application post-emergence” value is recorded as 5; the “ALOMY … application post-emergence” value is reported as 4; the “AMARE … application post-emergence” value is 5; the “ECHCG … application post-emergence” value amounted to 5. In test [2], the “SETFA (Setaria faberi) damage score” value amounted to 5 and the “ZEAMX (Zea mays) damage score” value is 5.
With `CC(C)(C)CNC1=C(Cl)C(=O)N(c2cc(C(C)(C)C)on2)C1O` (stereo not drawn) [C10], in test [1], the “Pre-emergence herbicidal damage score, ABUTH” value stood at 0; the “Pre-emergence herbicidal damage score, ALOMY” value is listed as 0; the “Pre-emergence herbicidal damage score, AMARE” value is recorded as 2; the “Pre-emergence herbicidal damage score, ECHCG” value was determined as 0. For the same molecule, in test [1], the “Pre-emergence herbicidal damage score, SETFA” value worked out at 0 and the “Pre-emergence herbicidal damage score, ZEAMX” value is recorded as 0. Moreover, in test [2], the “ABUTH … application post-emergence” value is 0; the “ALOMY … application post-emergence” value came to 0; the “AMARE … application post-emergence” value is recorded as 0; the “ECHCG … application post-emergence” value is on record as 0. In test [2], the “SETFA (Setaria faberi) damage score” value was 0 and the “ZEAMX (Zea mays) damage score” value was found to be 0.
For `CCC(=O)OC1C(C)=C(Cl)C(=O)N1c1cc(C(C)(C)C)on1` (stereo not drawn) [A93], in test [1], the “Pre-emergence herbicidal damage score, ABUTH” value was found to be 5; the “Pre-emergence herbicidal damage score, ALOMY” value turned out to be 4; the “Pre-emergence herbicidal damage score, AMARE” value is 5; the “Pre-emergence herbicidal damage score, ECHCG” value stood at 4. In test [1], the “Pre-emergence herbicidal damage score, SETFA” value was 5 and the “Pre-emergence herbicidal damage score, ZEAMX” value was 3. For the same molecule, in test [2], the “ABUTH … application post-emergence” value is 5; the “ALOMY … application post-emergence” value was 5; the “AMARE … application post-emergence” value is recorded as 5; the “ECHCG … application post-emergence” value was 5. Also, in test [2], the “SETFA (Setaria faberi) damage score” value is recorded as 5 and the “ZEAMX (Zea mays) damage score” value is 4.
Consider `CC(=O)OC1C(N)=C(Cl)C(=O)N1c1cc(C(C)(C)C)on1` (stereo not drawn) [C13], for which, in test [1], the “Pre-emergence herbicidal damage score, ABUTH” value was determined as 5; the “Pre-emergence herbicidal damage score, ALOMY” value is 4; the “Pre-emergence herbicidal damage score, AMARE” value was 5; the “Pre-emergence herbicidal damage score, ECHCG” value was determined as 5. Moreover, in test [1], the “Pre-emergence herbicidal damage score, SETFA” value came to 4 and the “Pre-emergence herbicidal damage score, ZEAMX” value was 4. Moreover, in test [2], the “ABUTH … application post-emergence” value is 5; the “ALOMY … application post-emergence” value is given as 5; the “AMARE … application post-emergence” value is 5; the “ECHCG … application post-emergence” value came out at 5. Besides, in test [2], the “SETFA (Setaria faberi) damage score” value stood at 5 and the “ZEAMX (Zea mays) damage score” value is on record as 5.
For `CC1=C(Cl)C(=O)N(c2cc(C(C)(C)C)on2)[C@H]1O` [A9], in test [2], the “ABUTH … application post-emergence” value is recorded as 5; the “ALOMY … application post-emergence” value stood at 4; the “AMARE … application post-emergence” value was 5; the “ECHCG … application post-emergence” value came out at 5. Further, in test [2], the “SETFA (Setaria faberi) damage score” value was 5 and the “ZEAMX (Zea mays) damage score” value worked out at 5.
Turning to `CC1=C(Cl)C(=O)N(c2cc(C(C)(C)C)on2)[C@H]1O` [A10], in test [2], the “AMARE … application post-emergence” value is recorded as 5; the “ECHCG … application post-emergence” value came to 5; the “SETFA (Setaria faberi) damage score” value was 5.
